Measured values reported in US20250332078A1, “COSMETIC AND/OR PHARMACEUTICAL COMPOSITIONS CONTAINING CANNABINOIDS” (priority 2020, published 2025).
Like-named read-outs stand apart in the source and are kept apart here.

Key:
NHDF cells = test: DCF assay, cellular anti-oxidative capacity (ROS reduction); format: cell-based, human
Method: To quantify intracellular radicals in a cell model the dichlorofluorescein (DCF) assay was performed. Therefore, normal dermal human fibroblasts were used as a model for the skin dermis, where ROS would damage cells and the surrounding tissue, which as opposed to keratinocytes accumulate damage over the human life time. […] By intracellular esterases and oxidation, the non-fluorescent H2DCFDA is converted to the highly fluorescent 2′,7′-dichlorofluorescein (DCF). The non-fluorescent fluorescin (2′,7′-dichlorofluorescein diacetate (DCFH-DA) pass the cell membranes. In the cytoplasm, it is cleaved by intracellular esterases and thereby trapped in the cell. The oxidation of DCFH to DCF by intracellularly existing ROS originated from H2O2 added to the cells (reactive oxygen species) results in fluorescence.
Determination of the anti-oxidative capacity is performed in 96-well microplates from Nunc (Wiesbaden, Germany) and with the microplate reader “Spark” from Tecan (Crailsheim, Germany).
Cells are seeded in a black 96 well microplate with transparent bottom and incubated at 37° C. After 24 hours the cells were starved with 0.1% FBS for 24 h. Then the supernatant is aspirated and the test samples are added and incubated for 24 h. As a positive control Trolox is always co-tested. Then the DCF Assay is performed and the fluorescence is measured from bottom of well at EX/EM 485/528 nm. The cellular AOX capacity is expressed in percent as ROS reduction, which can be determined by rule of proportion in combination with the control.

IL8 = IL8 ELISA on HaCaT cells, inflammation triggered with IL1α; format: cell-based, human; details: for anti-inflammatory activity (IL8 secretion), in words: Example 2; for inhibition at 2.2 µM / inhibition at 4.6 µM / inhibition at 10 µM: Homo sapiens, read-out: IL8 inhibition; for inhibition at 2.2 µM / inhibition at 4.6 µM / inhibition at 10 µM / IL8 inhibition: HaCaT
Excerpt: Inflammation in the skin occurs after UV or chemical exposure, microbial infection or wounding to form a defense against pathogens. However, inflammation in response to UV is associated with degenerative processes in the skin resulting in photoaging, wrinkle and age spot formation. In order to identify the Anti-inflammatory (AI) potential of the test samples the inflammatory mediators interleukin 8 (IL8) were quantified, which initiate and mediate inflammation through recruitment of inflammatory cells from the vasculature. Another object has been identification of the synergistic activity of the test substances. For this purpose, the individual cellular AI potential of bisabolol and synthetic CBD (hereinafter referred to as “SymDStress” obtained from Symrise AG, Holzminden, Germany) with their combination in 100:5, 100:4, 100:3, 100:2 and 100:1 ratios were examined.
Interleukin 8 (IL-8) or CXCL8 is a chemokine produced by macrophages and other cell types such as epithelial cells, airway smooth muscle cells and endothelial cells. In humans, the interleukin-8 protein is encoded by the IL8 gene IL-8 is initially produced as a precursor which undergoes cleavage to create several active IL-8 isoforms. In culture, a 72 amino acid peptide is the major form secreted by all kinds of cells. Interleukin-8 is a key mediator associated with inflammation where it plays a key role in neutrophil recruitment and neutrophil degranulation. As an example, it has been cited as a pro-inflammatory mediator in gingivitis, psoriasis and other diseases. IL8 secretion is increased by various kinds of stress including UV & oxidant stress, which thereby cause the recruitment of inflammatory cells and induces a further increase in oxidant stress mediators, making it a key parameter in localized inflammation.
The ELISA assay uses a solid-phase type of enzyme immunoassay (EIA) to detect the presence of a protein in a liquid sample using antibodies directed against the protein to be measured. Performing an ELISA involves at least one antibody with specificity for that particular protein. The sample with an unknown amount of protein is immobilized on a solid support (usually a polystyrene microtiter plate). After the protein is immobilized, the detection antibody is added, forming a complex with the protein. The detection antibody can be covalently linked to an enzyme or can itself be detected by a secondary antibody that is linked to an enzyme through bio-conjugation. Between each step, the plate is typically washed with a mild detergent solution to remove any proteins or antibodies that are non-specifically bound. After the final wash step, the plate is developed by adding an enzymatic substrate to produce a visible signal, which indicates the quantity the protein to be measured in the sample.
In the present test approach, the IL8 produced and secreted by cells were determined in an Enzyme linked immunosorbance assay (ELISA) from cell supernatants utilizing antibodies detecting the IL8. The assay was performed on HaCaT cells by addition of test substances and their incubation for 6 h (37° C.). Afterwards, inflammation was triggered with IL1α for 2 h or respectively 24 h and IL8 was measured. Therefore, the quantitative sandwich enzyme immunoassay technique was employed. A monoclonal antibody specific for human IL-8 was pre-coated onto a microplate. Standards and samples/supernatants were pipetted into the wells and any IL-8 present was bound by the immobilized antibody. After washing away any unbound substances, an enzyme-linked polyclonal antibody specific for human IL-8 was added to the wells. Following a wash to remove any unbound antibody-enzyme reagent, a substrate solution was added. A color developed in proportion to the amount of IL-8 bound in the initial step. Therefore, the IL8 concentrations for unknown samples are interpolated from the standard curve. […]

[1] = Colour stability of cannabidiol/bisabolol blend with stabilizers (LICO 690, L*a*b, ΔE); format: physicochemical; details: FIG. 2
Method: Colour Stability is an important criterion for customers. Particularly, a product should not change colour during storage. Especially long term stability at room temperature dark stored (RTD) is important, as this simulates storage at a customer. To evaluate effect different antioxidants are tested in common used concentration (see Table 7). Colour is evaluated with LICO 690 (L*a*b-system). Results are compared with ΔE according to the following equation: […]

[2] = Color stabilization in o/w emulsion formulation; format: physicochemical
Method: Besides colour stability of pure product for end customer colour stability of the formulation is even more important. Discoloration is related for customer to shelf life, reduced efficacy and microbial contamination. Therefore, blends were tested in simple o/w emulsions adding an amino carboxylate and in the alternative a phytic acid salt. The results are shown in […]

[3] = ABTS assay, chemical anti-oxidative capacity
Method: The ABTS-Assay is a cell free in vitro test for the evaluation of the chemical AOX capacity. The assay principle bases on the reduction and the involved de-colorization of the green colored cationic radical 2,2′-Azinobis(3-ethylbenzothiazoline 6-sulfonic acid) (ABTS+) by antioxidants. The de-colorization can be measured photometrically at 734 nm. Determination of the anti-oxidative capacity is performed in 96-well microplates from Nunc (Wiesbaden, Germany) and with the microplate reader “Spark” from Tecan (Crailsheim, Germany).
Samples were incubated for 10 min at 30° C. with the 2,2′-Azinobis-(3-ethylbenzothiazoline-6-sulfonate (ABTS) radical cation (Sigma, St. Louis, USA) obtained by chemical conversion of ABTS with potassium persulfate (K2S2O8). As a positive control Trolox was co-tested. The degree of de-colorization was determined photometrically at 734 nm. Results are averaged from 2 independent experiments performed in quadruple technical replicates. The anti-oxidative capacity is expressed in IC50 values (concentration that scavenges 50% of the cationic radical relative to the untreated ABTS solution), which is determined by 4-parameter logistic regression.

[4] = Recrystallization in emulsion (Olympus microscope IX-70, polarized light); format: physicochemical
Method: To save energy and reduce CO2 there's a trend for cold process emulsions. So it's recommended to use liquid ingredients or well soluble ingredients. […] Recrystallization is evaluated with Olympus microscope IX-70 (60fold) polarized light. As synergist effects in terms of efficacy had been observed, SymDStress is solved in Dragosantol® 100 (Bisabolol). […] The mixture is suitable for cold/cold, hot/cold and cold/cold process emulsions, gels etc.
As synergist effects in terms of efficacy had been observed, SymD Stress is solved in Dragosantol® 100 (Bisabolol). […] Mixture is suitable for cold/cold, hot/cold and cold/cold process emulsions, gels. […] (see FIG. 1). After 6M 5° C. no change in formulation containing Bisabolol. Bisabolol is a very effective solvent for Cannabidiol and helps to prevent recrystallization in target application.

Water solubility = format: physicochemical
[5] = Table 1, 0.000034 % (0.0011 mM)
[6] = Table 1, 0.000074 % (0.0023 mM)
[7] = Table 1, 0.000159 % (0.0050 mM)
[8] = Table 1, 0.000343 % (0.0110 mM)

Molecule: CC(C)=CCC[C@](C)(O)[C@@H]1CC=C(C)CC1 [α-bisabolol, alpha-bisabolol]
- ROS reduction (NHDF cells; Table 6, 0.00002847 % (0.00100 mMol/l)): 10.61%
- anti-inflammatory activity (IL8 secretion), in words (IL8): opposite effect
- inhibition at 2.2 µM (IL8; Table 2, 0.0022 mM): -14%
- inhibition at 4.6 µM (IL8; Table 2, 0.0046 mM): -3%
- inhibition at 10 µM (IL8; Table 2, 0.01000 mM): 1%
- IL8 inhibition (IL8; Table 3, 0.002847 % (0.100 mM)): 39%

Molecule: Tocopherol
- discoloration of solution, in words [1]: can prevent solution from discoloration

Molecule: O=C([O-])CN(CCN(CC(=O)[O-])CC(=O)O)CC(=O)O.[Na+].[Na+] [Disodium EDTA]
- discoloration of formulation, in words ([2]; after 1M storage at RTL, FIG. 3): excellent stabilizing agent against discoloration

Molecule: O=C([O-])CC[C@@H](C(=O)[O-])N(CC(=O)[O-])CC(=O)[O-].[Na+].[Na+].[Na+].[Na+] [Tetrasodium Glutamate Diacetate]
- discoloration in the end-formulation, in words ([2]; Table 9, FIG. 4): reduced discoloration

Molecule: C=C(C)[C@@H]1CCC(C)=C[C@H]1c1c(O)cc(CCCCC)cc1O [CBD (synthetic), cannabidiol]
- ROS reduction (NHDF cells; Table 5, 0.0000031 % (0.0001 mMol/l)): 24.01%
- ROS reduction (NHDF cells; Table 5, 0.0000063 % (0.0002 mMol/l)): 35.43%
- ROS reduction (NHDF cells; Table 5, 0.0000126 % (0.0004 mMol/l)): 34.74%
- ROS reduction (NHDF cells; Table 5, 0.0000157 % (0.0005 mMol/l)): 34.55%
- ROS reduction (NHDF cells; Table 5, 0.0000397 % (0.0013 mMol/l)): 40.61%
- ROS reduction (NHDF cells; Table 5, 0.0000496 % (0.0016 mMol/l)): 48.96%
- ROS reduction (NHDF cells; Table 5, 0.000094 % (0.0003 mMol/l)): 40.4%
- ROS reduction (NHDF cells; Table 6, 0.000001256 % (0.00004 mMol/l)): 7.20%
- ROS reduction (NHDF cells; Table 6, 0.000001570 % (0.00005 mMol/l)): −5.44%
- reducing intracellular ROS expression (NHDF cells; summary of Table 5): up to 50%
- AOX capacity compared to the technical positive control, in words [3]: higher AOX capacity
- Anti-oxidative capacity ([3]; 0.0000160 %): 23%
- Anti-oxidative capacity ([3]; 0.0000310 %): 28%
- Anti-oxidative capacity ([3]; 0.000160 %): 84%
- Anti-oxidative capacity ([3]; 0.000310 %): 96%
- Anti-oxidative capacity ([3]; 0.000470 %): 100%
- Anti-oxidative capacity ([3]; 0.000630 %): 100%
- recrystallization in formulation ([4]; 0.025% CBD, after 1M 5° C.): recrystallization can be observed
- recrystallization in emulsion ([4]; after 1M at Room temperature dark (RTD) storage): recrystallization in emulsion is observed
- anti-inflammatory activity (IL8 secretion), in words (IL8): significant anti-inflammatory activity
- inhibition at 2.2 µM (IL8): 6%
- inhibition at 4.6 µM (IL8): 18%
- inhibition at 10 µM (IL8): 31%
- IL8 inhibition (IL8; [5]): −0.84%
- IL8 inhibition (IL8; [6]): 13.91%
- IL8 inhibition (IL8; [7]): 25.98%
- IL8 inhibition (IL8; [8]): 34.25%
- IL8 inhibition (IL8; Table 3, 0.000150 % (0.005 mM)): 21%
- water solubility, in words (Water solubility): low water solubility

Molecule: C=C(C)[C@@H]1CCC(C)=C[C@H]1c1c(O)cc(CCCCC)cc1O [CBD (natural), cannabidiol, reference compound]
- IL8 inhibition (IL8; [5]): −0.85%
- IL8 inhibition (IL8; [6]): 4.84%
- IL8 inhibition (IL8; [7]): 11.42%
- IL8 inhibition (IL8; [8]): 31.90%
